Assay results: article PMC10129394, “PK1 from Drosophila obscurin is an inactive pseudokinase with scaffolding properties” (Open Biology, 2023)

What was measured:
[1] = biological target: T1, dmObsc-PK1 (Drosophila melanogaster, UniProt A8DYP0); experiment: X-ray crystallography, […] Å; conditions: co-crystallized with 3 mM ATP and 1 mM MgCl2, ADP found in density; no cation observed; pH 9.5; ATP-binding pocket
T1 construct: gene Obsc; pseudokinase domain PK1 plus 40 C-terminal residues (3186-3480); N-terminal His6-3C tag (pOPINF), cleaved with 3C protease; E. coli Rosetta

[2] = biological target: T1, dmObsc-PK1; experiment: isothermal titration calorimetry; assay type: binding

T1 sequence (A8DYP0 3186-3480): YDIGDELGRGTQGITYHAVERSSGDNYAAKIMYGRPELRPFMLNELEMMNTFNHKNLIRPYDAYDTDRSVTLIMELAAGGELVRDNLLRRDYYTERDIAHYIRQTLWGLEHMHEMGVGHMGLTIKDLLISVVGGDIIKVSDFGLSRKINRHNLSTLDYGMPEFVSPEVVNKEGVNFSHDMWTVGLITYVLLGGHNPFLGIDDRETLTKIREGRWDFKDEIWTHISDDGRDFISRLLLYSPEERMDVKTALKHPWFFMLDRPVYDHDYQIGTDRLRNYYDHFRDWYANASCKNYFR

Question: For `Nc1ncnc2c1ncn2[C@@H]1O[C@H](COP(=O)(O)OP(=O)(O)O)[C@@H](O)[C@H]1O` [ADP], which “X-ray crystallography, 1.90 Å” value [1] is on record?
Answer: electron density maps revealed ADP bound to the kinase

Question: How did the Kd [2] turn out when `Nc1ncnc2c1ncn2[C@@H]1O[C@H](COP(=O)(O)OP(=O)(O)OP(=O)(O)O)[C@@H](O)[C@H]1O` [ATP] was run?
Answer: 61.8 ± 4.2 µM
